This assay addresses T1, human VDR (Homo sapiens, UniProt P11473).
T1 sequence (P11473 1-427): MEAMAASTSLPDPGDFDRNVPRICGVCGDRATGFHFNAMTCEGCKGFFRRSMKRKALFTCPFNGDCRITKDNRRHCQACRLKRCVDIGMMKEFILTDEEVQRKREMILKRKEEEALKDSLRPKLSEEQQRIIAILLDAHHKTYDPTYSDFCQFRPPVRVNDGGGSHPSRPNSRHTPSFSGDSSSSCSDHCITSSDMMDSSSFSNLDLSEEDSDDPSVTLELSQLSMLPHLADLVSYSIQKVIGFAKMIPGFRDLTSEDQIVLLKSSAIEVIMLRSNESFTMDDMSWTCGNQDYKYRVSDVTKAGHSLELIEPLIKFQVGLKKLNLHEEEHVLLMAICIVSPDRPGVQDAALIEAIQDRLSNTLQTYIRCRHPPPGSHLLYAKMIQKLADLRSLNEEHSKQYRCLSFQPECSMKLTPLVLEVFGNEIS
T1 sequence (P19793 1-462 partner): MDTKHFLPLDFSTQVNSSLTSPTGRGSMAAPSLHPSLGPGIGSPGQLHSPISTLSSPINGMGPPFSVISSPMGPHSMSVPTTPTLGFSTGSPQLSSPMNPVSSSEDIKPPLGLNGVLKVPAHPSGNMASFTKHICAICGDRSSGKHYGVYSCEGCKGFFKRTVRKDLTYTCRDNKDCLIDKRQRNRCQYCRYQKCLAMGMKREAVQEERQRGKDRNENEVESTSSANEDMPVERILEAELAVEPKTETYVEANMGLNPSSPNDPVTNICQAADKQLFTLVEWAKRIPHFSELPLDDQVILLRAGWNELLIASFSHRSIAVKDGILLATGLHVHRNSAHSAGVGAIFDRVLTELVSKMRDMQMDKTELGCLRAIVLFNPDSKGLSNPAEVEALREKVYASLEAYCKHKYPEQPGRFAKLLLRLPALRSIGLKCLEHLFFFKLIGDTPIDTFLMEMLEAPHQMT
Briefly: Evaluation of VDR transcription activity in human osteoblasts (HOS cells), luciferase reporter. Conditions: Activity (EC50, VDR transcription activity), HOS cells transfected with human VDR, human RXRα and DR3 luciferase reporter; 21 hours.
The molecule `C=C1/C(=C\C=C2/CCC[C@]3(C)[C@@H]([C@H](C)CN4CC[C@@H](CC(F)F)C4)CC[C@@H]23)C[C@@H](O)[C@H](C)[C@@H]1O` [Compound B039, (1R,2S,3S,Z)-5-(2-((1R,3aS,7aR,E)-1-((S)-1-((S)-3-(2,2-difluoroethyl)pyrrolidin-1-yl)propan-2-yl)-7a-methyloctahydro-4H-inden-4-ylidene)ethylidene)-2-methyl-4-methylenecyclohexane-1,3-diol] yielded an EC50 of 0.001 to 0.01 µM. Regarding `C=C1[C@H](O)CC(=C/C=C2\CCC[C@]3(C)[C@@H]([C@H](C)CN4CC[C@H](OC(F)F)C4)CC[C@@H]23)C[C@H]1O` [Compound B049, (1R,3R)-5-(2-((1R,3aS,7aR,E)-1-((S)-1-((S)-3-(difluoromethoxy)pyrrolidin-1-yl)propan-2-yl)-7a-methyloctahydro-4H-inden-4-ylidene)ethylidene)-2-methylenecyclohexane-1,3-diol], the EC50 is 0.001 to 0.01 µM. In the case of `C=C1[C@H](O)CC(=C/C=C2\CCC[C@]3(C)[C@@H]([C@H](C)CN4CC[C@@H](OC(F)F)C4)CC[C@@H]23)C[C@H]1O` [Compound B050, (1R,3R)-5-(2-((1R,3aS,7aR,E)-1-((S)-1-((R)-3-(difluoromethoxy)pyrrolidin-1-yl)propan-2-yl)-7a-methyloctahydro-4H-inden-4-ylidene)ethylidene)-2-methylenecyclohexane-1,3-diol] it was 0.001 to 0.01 µM; in that of `C[C@H](CN1CC[C@@H](OC(F)F)C1)[C@H]1CC[C@H]2/C(=C/C=C3C[C@@H](O)C[C@H](O)C3)CCC[C@]12C` [Compound B052, (1R,3R)-5-(2-((1R,3aS,7aR,E)-1-((S)-1-((R)-3-(difluoromethoxy)pyrrolidin-1-yl)propan-2-yl)-7a-methyloctahydro-4H-inden-4-ylidene)ethylidene)cyclohexane-1,3-diol], 0.01 to 0.1 µM; in that of `C=C1/C(=C\C=C2/CCC[C@]3(C)[C@@H]([C@H](C)CN4CC[C@H](OCC(F)F)C4)CC[C@@H]23)C[C@@H](O)C[C@@H]1O` [Compound B053, (1R,3S,Z)-5-(2-((1R,3aS,7aR,E)-1-((S)-1-((S)-3-(2,2-difluoroethoxy)pyrrolidin-1-yl)propan-2-yl)-7a-methyloctahydro-4H-inden-4-ylidene)ethylidene)-4-methylenecyclohexane-1,3-diol], 0.01 to 0.1 µM. With `C=C1/C(=C\C=C2/CCC[C@]3(C)[C@@H]([C@H](C)CN4CC[C@@H](OCC(F)F)C4)CC[C@@H]23)C[C@@H](O)C[C@@H]1O` [Compound B054, (1R,3S,Z)-5-(2-((1R,3aS,7aR,E)-1-((S)-1-((R)-3-(2,2-difluoroethoxy)pyrrolidin-1-yl)propan-2-yl)-7a-methyloctahydro-4H-inden-4-ylidene)ethylidene)-4-methylenecyclohexane-1,3-diol] the figure was 0.01 to 0.1 µM; with `C=C1[C@H](O)CC(=C/C=C2\CCC[C@]3(C)[C@@H]([C@H](C)CN4CC[C@@H](OCC(F)F)C4)CC[C@@H]23)C[C@H]1O` [Compound B056, (1R,3R)-5-(2-((1R,3aS,7aR,E)-1-((S)-1-((R)-3-(2,2-difluoroethoxy)pyrrolidin-1-yl)propan-2-yl)-7a-methyloctahydro-4H-inden-4-ylidene)ethylidene)-2-methylenecyclohexane-1,3-diol], 0.01 to 0.1 µM; with `C=C1/C(=C\C=C2/CCC[C@]3(C)[C@@H]([C@H](C)CN4CC[C@@H](CCC(F)F)C4)CC[C@@H]23)C[C@@H](O)C[C@@H]1O` [Compound B060, (1R,3S,Z)-5-(2-((1R,3aS,7aR,E)-1-((S)-1-((R)-3-(3,3-difluoropropyl)pyrrolidin-1-yl)propan-2-yl)-7a-methyloctahydro-4H-inden-4-ylidene)ethylidene)-4-methylenecyclohexane-1,3-diol], 0.01 to 0.1 µM. Consider `C[C@H](CN1CC[C@H](CCC(F)F)C1)[C@H]1CC[C@H]2/C(=C/C=C3C[C@@H](O)C[C@H](O)C3)CCC[C@]12C` [Compound B063, (1R,3R)-5-(2-((1R,3aS,7aR,E)-1-((S)-1-((S)-3-(3,3-difluoropropyl)pyrrolidin-1-yl)propan-2-yl)-7a-methyloctahydro-4H-inden-4-ylidene)ethylidene)cyclohexane-1,3-diol], for which the EC50 fell in the range of 0.01 to 0.1 µM. `C=C1/C(=C\C=C2/CCC[C@]3(C)[C@@H]([C@H](C)CN4CC[C@H](OC(F)(F)F)C4)CC[C@@H]23)C[C@@H](O)C[C@@H]1O` [Compound B065, (1R,3S,Z)-5-(2-((1R,3aS,7aR,E)-7a-methyl-1-((S)-1-((S)-3-(trifluoromethoxy)pyrrolidin-1-yl)propan-2-yl)octahydro-4H-inden-4-ylidene)ethylidene)-4-methylenecyclohexane-1,3-diol] registered an EC50 of 0.01 to 0.1 µM. For `C=C1/C(=C\C=C2/CCC[C@]3(C)[C@@H]([C@H](C)CN4CC[C@@H](OC(F)(F)F)C4)CC[C@@H]23)C[C@@H](O)C[C@@H]1O` [Compound B066, (1R,3S,Z)-5-(2-((1R,3aS,7aR,E)-7a-methyl-1-((S)-1-((R)-3-(trifluoromethoxy)pyrrolidin-1-yl)propan-2-yl)octahydro-4H-inden-4-ylidene)ethylidene)-4-methylenecyclohexane-1,3-diol], the EC50 fell in the range of 0.01 to 0.1 µM. Regarding `C=C1/C(=C\C=C2/CCC[C@]3(C)[C@@H]([C@H](C)CN4CC[C@](C)(O)C4)CC[C@@H]23)C[C@@H](O)C[C@@H]1O` [Compound B071, (1R,3S,Z)-5-(2-((1R,3aS,7aR,E)-1-((S)-1-((S)-3-hydroxy-3-methylpyrrolidin-1-yl)propan-2-yl)-7a-methyloctahydro-4H-inden-4-ylidene)ethylidene)-4-methylenecyclohexane-1,3-diol], the EC50 was 0.01 to 0.1 µM. In the case of `C=C1/C(=C\C=C2/CCC[C@]3(C)[C@@H]([C@H](C)CN4CC[C@@](C)(O)C4)CC[C@@H]23)C[C@@H](O)C[C@@H]1O` [Compound B074, (1R,3S,Z)-5-(2-((1R,3aS,7aR,E)-1-((S)-1-((R)-3-hydroxy-3-methylpyrrolidin-1-yl)propan-2-yl)-7a-methyloctahydro-4H-inden-4-ylidene)ethylidene)-4-methylenecyclohexane-1,3-diol], the EC50 was 0.1 to 1 µM.

In turn, `C=C1[C@H](O)CC(=C/C=C2\CCC[C@]3(C)[C@@H]([C@H](C)CN4CCC(O)(C5CC5)C4)CC[C@@H]23)C[C@H]1O` (stereo partly drawn) [Compound B077, (1R,3R)-5-(2-((1R,3aS,7aR,E)-1-((2S)-1-(3-cyclopropyl-3-hydroxypyrrolidin-1-yl)propan-2-yl)-7a-methyloctahydro-4H-inden-4-ylidene)ethylidene)-2-methylenecyclohexane-1,3-diol] had an EC50 of 0.01 to 0.1 µM. In the case of `C[C@H](CCN1CC[C@H](C(F)F)C1)[C@H]1CC[C@H]2/C(=C/C=C3C[C@@H](O)C[C@H](O)C3)CCC[C@]12C` [Compound B080, (1R,3R)-5-(2-((1R,3aS,7aR,E)-1-((R)-4-((S)-3-(difluoromethyl)pyrrolidin-1-yl)butan-2-yl)-7a-methyloctahydro-4H-inden-4-ylidene)ethylidene)cyclohexane-1,3-diol] it was 0.01 to 0.1 µM; in that of `C[C@H](CCN1CC[C@@H](C(F)F)C1)[C@H]1CC[C@H]2/C(=C/C=C3C[C@@H](O)C[C@H](O)C3)CCC[C@]12C` [Compound B081, (1R,3R)-5-(2-((1R,3aS,7aR,E)-1-((R)-4-((R)-3-(difluoromethyl)pyrrolidin-1-yl)butan-2-yl)-7a-methyloctahydro-4H-inden-4-ylidene)ethylidene)cyclohexane-1,3-diol], 0.01 to 0.1 µM; in that of `C[C@H](CCN1CC[C@H](C(C)(F)F)C1)[C@H]1CC[C@H]2/C(=C/C=C3C[C@@H](O)C[C@H](O)C3)CCC[C@]12C` [Compound B083, (1R,3R)-5-(2-((1R,3aS,7aR,E)-1-((R)-4-((S)-3-(1,1-difluoroethyl)pyrrolidin-1-yl)butan-2-yl)-7a-methyloctahydro-4H-inden-4-ylidene)ethylidene)cyclohexane-1,3-diol], 0.01 to 0.1 µM. In the case of `C[C@H](CCCN1CC[C@H](C(F)F)C1)[C@H]1CC[C@H]2/C(=C/C=C3C[C@@H](O)C[C@H](O)C3)CCC[C@]12C` [Compound B084, (1R,3R)-5-(2-((1R,3aS,7aR,E)-1-((R)-5-((S)-3-(difluoromethyl)pyrrolidin-1-yl)pentan-2-yl)-7a-methyloctahydro-4H-inden-4-ylidene)ethylidene)cyclohexane-1,3-diol] it was 0.01 to 0.1 µM; in that of `C[C@H](CCCN1CC[C@@H](C(F)F)C1)[C@H]1CC[C@H]2/C(=C/C=C3C[C@@H](O)C[C@H](O)C3)CCC[C@]12C` [Compound B085, (1R,3R)-5-(2-((1R,3aS,7aR,E)-1-((R)-5-((R)-3-(difluoromethyl)pyrrolidin-1-yl)pentan-2-yl)-7a-methyloctahydro-4H-inden-4-ylidene)ethylidene)cyclohexane-1,3-diol], 0.01 to 0.1 µM.
